For assay [1] the following is noted: cited from earlier work.
The test system of a further assay is OX2 receptor. To be noted: cited from earlier work.
The next assay deals with OX1. The following applies: cited from earlier work.
The target in the next assay is T1, human OX1 receptors (Homo sapiens, UniProt O43613).
T1 sequence (O43613 1-425): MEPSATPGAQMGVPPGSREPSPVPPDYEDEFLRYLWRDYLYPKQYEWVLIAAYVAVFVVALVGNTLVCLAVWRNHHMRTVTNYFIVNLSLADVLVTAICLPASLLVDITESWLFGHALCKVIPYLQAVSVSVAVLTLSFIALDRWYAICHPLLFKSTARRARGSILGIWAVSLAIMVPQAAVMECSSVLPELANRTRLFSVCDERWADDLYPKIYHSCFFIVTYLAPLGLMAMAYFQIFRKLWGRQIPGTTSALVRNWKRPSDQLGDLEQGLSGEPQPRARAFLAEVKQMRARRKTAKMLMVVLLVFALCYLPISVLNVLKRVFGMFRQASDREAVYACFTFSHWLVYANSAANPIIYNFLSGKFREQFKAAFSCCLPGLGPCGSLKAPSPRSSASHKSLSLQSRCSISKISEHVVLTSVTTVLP
Nature of the assay: Calcium mobilization Ke. The assay is classed as cell-based.

In a further assay the target is T2, human OX2 receptors (Homo sapiens, UniProt O43614).
T2 sequence (O43614 1-444): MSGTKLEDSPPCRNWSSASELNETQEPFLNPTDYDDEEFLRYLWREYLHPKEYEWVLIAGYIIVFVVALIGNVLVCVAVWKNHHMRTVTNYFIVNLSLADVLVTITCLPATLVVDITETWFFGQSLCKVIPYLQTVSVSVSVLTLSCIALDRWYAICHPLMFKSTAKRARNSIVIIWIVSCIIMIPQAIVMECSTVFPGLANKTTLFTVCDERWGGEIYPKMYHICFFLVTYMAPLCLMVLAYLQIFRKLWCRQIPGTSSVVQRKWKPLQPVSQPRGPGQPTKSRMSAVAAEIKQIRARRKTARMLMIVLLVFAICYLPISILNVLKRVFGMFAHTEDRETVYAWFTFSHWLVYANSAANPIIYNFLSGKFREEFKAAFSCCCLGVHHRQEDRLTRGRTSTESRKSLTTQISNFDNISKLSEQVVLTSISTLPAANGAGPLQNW
Kind of assay: Calcium mobilization Ke. It counts as cell-based. (In general: Calcium assays in cells follow changes in intracellular calcium, usually with a dye or a luminescent sensor.)

Data on five molecules can be found in paper PMC4554834 (Bioorganic & medicinal chemistry, 2015).

For `COc1cc2c(cc1OC)CN(C(=O)[C@@H](NCc1ccncc1)C(C)(C)C)CC2` [TCS-OX2-29], in assay [1], the “effect on cocaine self-administration” value is “no effect”. Also, the “effect on cue-induced reinstatement” value in assay [1] (cocaine) is reported as “no effect”.

On to `CNC(=O)[C@@H](c1ccccc1)N1CCc2cc(OC)c(OC)cc2[C@@H]1CCc1ccc(C(F)(F)F)cc1` [Almorexant, almorexant], for which the “mode of antagonism at the OX2 receptor” value in the assay with OX2 receptor is “insurmountable antagonist”.

As for `Cc1nc2ccc(NC(=O)Nc3ccnc4cccnc34)cc2o1` [SB-334867], the “selectivity for OX1 over OX2” value in the assay with OX1 is ~ 50 fold. Turning to `CCCCCC(=O)Nc1ccc2c(c1)CCN(CC(=O)NCc1ccccc1)C2Cc1ccc(OC)c(OC)c1` (centres unmarked) [28b, N-{2-[(Benzylcarbamoyl)methyl]-1-[(3,4-dimethoxyphenyl)methyl]-1,2,3,4-tetrahydroisoquinolin-6-yl}hexanamide], the Kb on human OX1 receptors and on human OX2 receptors was greater than 10 µM each time. Turning to `COc1ccc(CC2c3ccc(OS(C)(=O)=O)cc3CCN2CC(=O)NCc2ccccc2)cc1OC` (centres unmarked) [18a, 2-[(Benzylcarbamoyl)methyl]-1-[(3,4-dimethoxyphenyl)methyl]-1,2,3,4-tetrahydroisoquinolin-6-yl methanesulfonate], the Kb at human OX1 receptors is greater than 10 µM; on human OX2 receptors, 1.33 ± 0.26 µM.
